According to patent US7910612B2, “4-oxy-N-[1,3,4]-thiadiazol-2-yl-benzene sulfonamides, pharmaceutical compositions and methods for their therapeutic use” (Sanofi-Aventis, priority 2005, dated 2011):
One block for each compound: values may come before it.

Target: T1, human PPARalpha (Homo sapiens, UniProt Q07869)
T1 construct: amino acids S167-Y468; expressed in transfected cells; host or cells: HEK (human embryo kidney) cells, stably transfected, pcDNA3 vector
T1 sequence (Q07869 167-468): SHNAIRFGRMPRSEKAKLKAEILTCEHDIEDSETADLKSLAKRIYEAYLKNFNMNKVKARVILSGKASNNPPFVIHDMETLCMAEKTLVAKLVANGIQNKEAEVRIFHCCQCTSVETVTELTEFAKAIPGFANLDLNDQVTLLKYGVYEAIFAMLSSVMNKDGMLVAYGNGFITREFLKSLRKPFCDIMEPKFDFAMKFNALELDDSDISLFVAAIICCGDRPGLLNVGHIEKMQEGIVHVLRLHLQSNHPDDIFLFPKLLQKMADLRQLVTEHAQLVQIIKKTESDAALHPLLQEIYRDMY
Assay: cellular PPARalpha assay (stably transfected HEK luciferase reporter cell line)
Format: cell-based
Experimental: The activity of the compounds was tested by a determination of EC50 values of PPAR agonists in the cellular PPARalpha assay. The potency of substances which bind to human PPARalpha and activate it in an agonistic manner is analyzed using a stably transfected HEK cell line (HEK=human embryo kidney) which is referred to here as PPARalpha reporter cell line. It contains two genetic elements, a luciferase reporter element (pdeltaM-GAL4-Luc-Zeo) and a PPARalpha fusion protein (GR-GAL4-humanPPARalpha-LBD) which mediates expression of the luciferase reporter element depending on a PPARalpha ligand. The stably and constitutively expressed fusion protein GR-GAL4-humanPPARalpha-LBD binds in the cell nucleus of the PPARalpha reporter cell line via the GAL4 protein portion to the GAL4 DNA binding motifs 5′-upstream of the luciferase reporter element which is stably integrated in the genome of the cell line. There is only weak expression of the luciferase reporter gene in the absence of a PPARalpha ligand if fatty acid-depleted fetal calf serum (cs-FCS) is used in the assay. PPARalpha ligands bind and activate the PPARalpha fusion protein and thereby stimulate the expression of the luciferase reporter gene. The luciferase which is formed can be detected by means of chemiluminescence via an appropriate substrate.
The PPARalpha reporter cell line was prepared in two stages. Firstly, the luciferase reporter element was constructed and stably transfected into HEK cells. For this purpose, five binding sites of the yeast transcription factor GAL4 (Accession # AF264724) were cloned in 5′-upstream of a 68 bp-long minimal MMTV promoter (Accession #V01175). The minimal MMTV promoter section contains a […] and a TATA element in order to enable efficient transcription by RNA polymerase II. The cloning and sequencing of the GAL4-MMTV construct took place in analogy to the description of Sambrook J. et. al. (Molecular cloning, Cold Spring Harbor Laboratory Press, 1989). Then the complete Photinus pyralis gene (Accession #M15077) was cloned in 3′-downstream of the GAL4-MMTV element. After sequencing, the luciferase reporter element consisting of five GAL4 binding sites, MMTV promoter and luciferase gene was recloned into a plasmid which confers zeocin resistance in order to obtain the plasmid pdeltaM-GAL4-Luc-Zeo. This vector was transfected into HEK cells in accordance with the statements in Ausubel, F. M. et al. (Current protocols in molecular biology, Vol. 1-3, John Wiley & Sons, Inc., 1995).
In a second step, the PPARalpha fusion protein (GR-GAL4-humanPPARalpha-LBD was introduced into the stable cell clone described. For this purpose, initially the cDNA coding for the N-terminal 76 amino acids of the glucocorticoid receptor (Accession #P04150) was linked to the cDNA section coding for amino acids 1-147 of the yeast transcription factor GAL4 (Accession #P04386). The cDNA of the ligand-binding domain of the human PPARalpha receptor (amino acids S167-Y468; Accession #S74349) was cloned in at the 3′-end of this GR-GAL4 construct. The fusion construct prepared in this way (GR-GAL4-humanPPARalpha-LBD) was recloned into the plasmid pcDNA3 (Invitrogen) in order to enable constitutive expression therein by the cytomegalovirus promoter. This plasmid was linearized with a restriction endonuclease and stably transfected into the previously described cell clone containing the luciferase reporter element. The finished PPARalpha reporter cell line which contains a luciferase reporter element and constitutively expresses the PPARalpha fusion protein (GR-GAL4-human PPARalpha-LBD) was isolated by selection with zeocin (0.5 mg/ml) and G418 (0.5 mg/ml).
Assay procedure.—The activity of PPARalpha agonists is determined in a 3-day assay which is described below: […]

SMILES: Cc1nc(-c2ccc(C(F)(F)F)cc2)sc1COc1ccc(S(=O)(=O)Nc2nnc(C(C)C)s2)cc1 [Example 1, N-(5-Isopropyl-[1,3,4]thiadiazol-2-yl)-4-[4-methyl-2-(4-trifluoromethyl-phenyl)-thiazol-5-ylmethoxy]-benzenesulfonamide]
EC50: 2900 nM

SMILES: COc1ccc2c(COc3ccc(S(=O)(=O)Nc4nnc(C(C)C)s4)cc3)coc2c1 [Example 3, N-(5-Isopropyl-[1,3,4]thiadiazol-2-yl)-4-(6-methoxy-benzofuran-3-ylmethoxy)-benzenesulfonamide]
EC50: 4570 nM

SMILES: COc1ccc(-c2nc(COc3ccc(S(=O)(=O)Nc4nnc(C(C)C)s4)cc3)no2)cc1 [Example 9, N-(5-Isopropyl-[1,3,4]thiadiazol-2-yl)-4-[5-(4-methoxy-phenyl)-[1,2,4]oxadiazol-3-ylmethoxy]-benzenesulfonamide]
EC50: 1420 nM

These reach a lower EC50. Values come first.

EC50: 1200 nM
SMILES: COc1ccc(-c2nc(COc3ccc(S(=O)(=O)Nc4nnc(C(C)C)s4)cc3)co2)cc1 [Example 13, N-(5-Isopropyl-[1,3,4]thiadiazol-2-yl)-4-[2-(4-methoxy-phenyl)-oxazol-4-ylmethoxy]-benzenesulfonamide]

EC50: 540 nM
SMILES: CC(C)c1nnc(NS(=O)(=O)c2ccc(OCc3ccc(Oc4ccc(C(F)(F)F)cc4)cc3)cc2)s1 [Example 4, N-(5-Isopropyl-[1,3,4]thiadiazol-2-yl)-4-[4-(4-trifluoromethyl-phenoxy)-benzyloxy]-benzenesulfonamide]

EC50: 190 nM
SMILES: CCc1oc(-c2cccc(C(F)(F)F)c2)nc1COc1ccc(S(=O)(=O)Nc2nnc(C(C)C)s2)cc1 [Example 14, 4-[5-Ethyl-2-(3-trifluoromethyl-phenyl)-oxazol-4-ylmethoxy]-N-(5-isopropyl-[1,3,4]thiadiazol-2-yl)-benzenesulfonamide]
